Values joined by “and” are separate entries in the source; they are usually repeats but may differ in a detail not shown here. Equal values may be shown once. After the bases stand the sugars from the 5' end (letter, count) and the backbone: PS all phosphorothioate, else s phosphorothioate and o phosphodiester by linkage. Methylation of C is not given here. e = 2'-O-(2-methoxyethyl) (MOE); k = constrained ethyl (cEt); d = 2'-deoxy (DNA)

Our source for the target mRNA inhibition values is the OligoGym collection.

The series deals with IRF4. The note with it: ASO.

For ACGCAATGGCAAAAGA (sugars k3 d10 k3, PS), the target mRNA inhibition (SK-MEL-28, 4 µM) was found to be 11%.

As to ATAGAGCCAGAGCAGT (sugars k3 d10 k3, PS), under “SK-MEL-28, 4 µM”, the target mRNA inhibition was 66%. On to “TGTTACCGATGCTTCA (sugars kkdddddddddkdkdk, PS)”, for which the target mRNA inhibition (MM.1R, 1 µM) is 35% and 26%. As to CCAACTTAAAATCCAC (sugars k3 d10 k3, PS), the target mRNA inhibition (SK-MEL-28, 4 µM) is 9%. As for CTGCAAACGACAAGTG (sugars k3 d10 k3, PS), the target mRNA inhibition (MM.1R, 1 µM) was -18%. Still for that read-out and setting: with “GTAGTATGAGAAACGG (sugars kkdddddddddekeke, PS)” the figure was 35%; with AGACCAATTTATGCCA (sugars k3 d10 k3, PS), 7%. In the case of CCCCATTGCCTGTTAA (sugars k3 d10 k3, PS), where the note is “SK-MEL-28, 4 µM”, the target mRNA inhibition is 20%.

ACAAAACGGACTGGAA (sugars k3 d10 k3, PS): where the note is “SK-MEL-28, 4 µM”, the target mRNA inhibition was 14%. In the case of “TACTGCTTGAGGTTTT (sugars k2 d9 e3 k2, PS)”, the target mRNA inhibition (MM.1R, 1 µM) is 10%. Consider AGGTATACTTAAGCAA (sugars k3 d10 k3, PS), for which, under “SK-MEL-28, 4 µM”, the target mRNA inhibition turned out to be 68%. As for GTGAGATGCGGAGGTT (sugars k3 d10 k3, PS), the target mRNA inhibition was found to be 14% (MM.1R, 0.0625 µM); 12% (MM.1R, 0.25 µM); 39% (MM.1R, 1 µM); 66% (MM.1R, 4 µM). Take ACTGAGTACAAACTAA (sugars k3 d10 k3, PS): the target mRNA inhibition (SK-MEL-28, 4 µM) worked out at 32%. TGCTTGAATTCCTTGA (sugars k3 d10 k3, PS): the target mRNA inhibition (MM.1R, 0.0625 µM) is -6% and -14%; the target mRNA inhibition (MM.1R, 0.074 µM) was determined as 13%; the target mRNA inhibition (MM.1R, 0.222 µM) was 12%; the target mRNA inhibition (MM.1R, 0.25 µM) is 1% and -8%; the target mRNA inhibition (MM.1R, 0.666 µM) came out at 23%; the target mRNA inhibition (MM.1R, 1 µM) is 23% and 25%. The target mRNA inhibition (MM.1R, 2 µM) came to 39%; the target mRNA inhibition (MM.1R, 4 µM) was 53% and 68%; the target mRNA inhibition (SK-MEL-28, 4 µM) was found to be 67%. In the case of GTTAAGTCCCATCTGT (sugars k3 d10 k3, PS), for the setting “SK-MEL-28, 4 µM”, the target mRNA inhibition stood at 40%.

In the case of “TGGGATTATATACTGG (sugars k2 d9 e3 k2, PS)”, under “MM.1R, 1 µM”, the target mRNA inhibition turned out to be 54%. With CTCTAGACAGAGGCCC (sugars k3 d10 k3, PS), the target mRNA inhibition (SK-MEL-28, 4 µM) was found to be 20%. Still for that read-out and setting: under ATTCTTAGAATGCATA (sugars k3 d10 k3, PS) stands 38%; under CTCTCCAGGTGGCTCA (sugars k3 d10 k3, PS), 13%.

In the case of GTTTTAAGAGGCGACT (sugars k3 d10 k3, PS), where the note is “SK-MEL-28, 4 µM”, the target mRNA inhibition is 33%. The same measure, in the same setting: with AGTACAAACTAAATTC (sugars k3 d10 k3, PS) the figure was 24%; with CTACACTTCCAAGCAA (sugars k3 d10 k3, PS), -5%; with CCCTACTGGGTACATG (sugars k3 d10 k3, PS), 37%. AAAGACCCCAGCTATG (sugars k3 d10 k3, PS): the target mRNA inhibition (SK-MEL-28, 4 µM) was 23%. With “TGTGCTTGCCAAGCCT (sugars kkddddddddddkeke, PS)”, where the note is “MM.1R, 1 µM”, the target mRNA inhibition was 26% and 30%.

Consider AAGAAGCACTGGCATC (sugars k3 d10 k3, PS), for which, where the note is “SK-MEL-28, 4 µM”, the target mRNA inhibition was 23%.

As for CCTACAAAATGCCTCC (sugars k3 d10 k3, PS), the target mRNA inhibition (SK-MEL-28, 4 µM) is 47%.

Regarding AACTTTCACCTGTGGG (sugars k3 d10 k3, PS), the target mRNA inhibition (SK-MEL-28, 4 µM) worked out at 50%.

As for ACAGAAGGGCAACAGT (sugars k3 d10 k3, PS), the target mRNA inhibition (SK-MEL-28, 4 µM) stood at 43%.

Regarding GATTTATGTTCCTTAA (sugars k3 d10 k3, PS), the target mRNA inhibition (SK-MEL-28, 4 µM) was 47%. Same read-out and setting: with CTGTACACTTTGTACG (sugars k3 d10 k3, PS) the figure was 34%. Same read-out and setting: with CTTTTACCCACCAAAG (sugars k3 d10 k3, PS) the figure was 18%. Still for that read-out and setting: under TTACTTAGACATTACT (sugars k3 d10 k3, PS) stands 48%; under GCATGCAAGCCCGTTA (sugars k3 d10 k3, PS), -1%. Take TGGCAACCATTTTCAC (sugars k3 d10 k3, PS): for the setting “SK-MEL-28, 4 µM”, the target mRNA inhibition came out at 7%. Still for that read-out and setting: under TATTACCATGCATAGT (sugars k3 d10 k3, PS) stands 30%; under TTAAAGATGCCAGAGG (sugars k3 d10 k3, PS), 28%.

Take AGGAAGCACTGGCATT (sugars k3 d10 k3, PS): the target mRNA inhibition (SK-MEL-28, 4 µM) stood at 59%. In the case of CTACTTCAGCTACATT (sugars k3 d10 k3, PS), under “SK-MEL-28, 4 µM”, the target mRNA inhibition amounted to 47%. Same read-out and setting: under CTTGAAAAGCCAATGC (sugars k3 d10 k3, PS) stands 58%; under TAGTTTAAGGGTTACG (sugars k3 d10 k3, PS), 49%. Still for that read-out and setting: with CCTTATTAGACTGACA (sugars k3 d10 k3, PS) the figure was 48%. Still for that read-out and setting: with TTTGAAGCAACACGGG (sugars k3 d10 k3, PS) the figure was 47%. For the sequence “AGCAGTGATGTCAGGT (sugars kkddddddddddkeke, PS)”, the target mRNA inhibition (MM.1R, 1 µM) is 67% and 64%.

Consider TCACAGTGATCATCAA (sugars k3 d10 k3, PS), for which the target mRNA inhibition (SK-MEL-28, 4 µM) turned out to be 43%. On the same count and under the same terms, under ACCTACAAAATGCCTC (sugars k3 d10 k3, PS) stands 42%. With CAGTAAACGCAAGTCT (sugars k3 d10 k3, PS), for the setting “MM.1R, 1 µM”, the target mRNA inhibition was -14%. Turning to CCACACCAGGAAACCG (sugars k3 d10 k3, PS), the target mRNA inhibition (SK-MEL-28, 4 µM) came to 14%. With “CAGTTGTAAATGAGTC (sugars kkdddddddddkdkdk, PS)”, the target mRNA inhibition (MM.1R, 1 µM) is 46%. The same measure, in the same setting: under AGCTGCGGAGCCTGGG (sugars k3 d10 k3, PS) stands 31%; under GCAAACGACAAGTGGC (sugars k3 d10 k3, PS), -15%. As for ACGACAGCTGCGGAGC (sugars k3 d10 k3, PS), the target mRNA inhibition (SK-MEL-28, 4 µM) was 27%. Same read-out and setting: under GTAATTTTAAGGCCCT (sugars k3 d10 k3, PS) stands 55%. “AAGCATTTTATCATCC (sugars kdddddddddkekeke, PS)”: the target mRNA inhibition (MM.1R, 1 µM) is 6%. Turning to “AGTTGTAAATGAGTCG (sugars k3 d9 k3 e1, PS)”, the target mRNA inhibition came to 27% (MM.1R, 0.074 µM); 61% (MM.1R, 0.222 µM); 80% (MM.1R, 0.666 µM); 87% (MM.1R, 1 µM); 95% (MM.1R, 2 µM). Take CCGTCCCAGTAGATCC (sugars k3 d10 k3, PS): where the note is “SK-MEL-28, 4 µM”, the target mRNA inhibition was determined as 25%. Same read-out and setting: with GCTACAAAGAGCACTG (sugars k3 d10 k3, PS) the figure was 63%. The same measure, in the same setting: under CCGCCCGCTCTGCTCT (sugars k3 d10 k3, PS) stands 54%; under CAGGAGCGCGGAGGGC (sugars k3 d10 k3, PS), 11%. Consider CTAATGGTGCTCCTAA (sugars k3 d10 k3, PS), for which the target mRNA inhibition (MM.1R, 1 µM) was 4%.

For the sequence ACTGGATATGTGGTGT (sugars k3 d10 k3, PS), for the setting “MM.1R, 1 µM”, the target mRNA inhibition came to 10%.

On to ACCAAGAAATGCACCT (sugars k3 d10 k3, PS), for which the target mRNA inhibition (SK-MEL-28, 4 µM) came to 57%. For CGGAGGTTCCTTGAGG (sugars k3 d10 k3, PS), the target mRNA inhibition is, setting by setting: (H929, 0.04 µM) 5% and 10%; (KMS11, 0.2 µM) 28% and 21%; (MM.1R, 0.0625 µM) 6%; (MM.1R, 0.25 µM) 29%; (MM.1R, 1 µM) 42% and 52%; (MM.1R, 4 µM) 64%.

As for CAGGAGAGCCCCTACC (sugars k3 d10 k3, PS), the target mRNA inhibition (MM.1R, 1 µM) was -8%. Turning to GTAAAACATAACTTAC (sugars k3 d10 k3, PS), the target mRNA inhibition (SK-MEL-28, 4 µM) worked out at 8%. In the case of “TGCTTGAGGTTTTCCT (sugars kkdddddddddkdkdk, PS)”, the target mRNA inhibition (MM.1R, 1 µM) turned out to be 45%. On the same count and under the same terms, under “TACTGTTACCGATGCT (sugars kkddddddddddkeke, PS)” stands 24% and 17%.

As for “AGCAGTGATGTCAGGT (sugars kddddddddddkekek, PS)”, the target mRNA inhibition is 37% (MM.1R, 0.0625 µM); 50% (MM.1R, 0.25 µM); 77% and 67% and 68% (MM.1R, 1 µM); 84% (MM.1R, 4 µM). For TCGCCCATGAGTTGAA (sugars k3 d10 k3, PS), the target mRNA inhibition (SK-MEL-28, 4 µM) was determined as 39%. Regarding GGAACGAAGAGCAGGG (sugars k3 d10 k3, PS), where the note is “MM.1R, 1 µM”, the target mRNA inhibition was determined as 12%. Still for that read-out and setting: under GCCTAGAGGTGCCTTC (sugars k3 d10 k3, PS) stands 13%; under TAGCCAATTCCTCCAC (sugars k3 d10 k3, PS), 1%. The same measure, in the same setting: with TTTACACCGTTGCTCA (sugars k3 d10 k3, PS) the figure was 3%. CGTATTTGTCGAGATC (sugars k3 d10 k3, PS): the target mRNA inhibition (SK-MEL-28, 4 µM) is 50%. With “GAAGTTTACACTGGAT (sugars kkddddddddddkeke, PS)”, the target mRNA inhibition (MM.1R, 1 µM) was determined as 46%. As to “GAAGCATTTTATCATC (sugars kddddddddddkekek, PS)”, the target mRNA inhibition (MM.1R, 1 µM) is -12%. As for ATCCATGTTGCATGGC (sugars k3 d10 k3, PS), for the setting “SK-MEL-28, 4 µM”, the target mRNA inhibition was determined as 61%.

As to TTCAGTTGTAAATGAG (sugars k3 d10 k3, PS), the target mRNA inhibition (SK-MEL-28, 4 µM) was determined as 56%.

ACAGGCGCGGACGCAC (sugars k3 d10 k3, PS): where the note is “SK-MEL-28, 4 µM”, the target mRNA inhibition amounted to 20%. In the case of “TGTGCTTGCCAAGCCT (sugars kdddddddddkekeke, PS)”, the target mRNA inhibition (MM.1R, 1 µM) is -3% and 16%. The same measure, in the same setting: with GTTCAGTGTGTTGACC (sugars k3 d10 k3, PS) the figure was 30%.

In the case of “CTATAGTGTTCCAGGA (sugars kddddddddddkekek, PS)”, where the note is “MM.1R, 1 µM”, the target mRNA inhibition worked out at 34%. For the sequence TCTTACTCCGCTGAGT (sugars k3 d10 k3, PS), the target mRNA inhibition (SK-MEL-28, 4 µM) was 35%. As for GGCCTCTGAGCAGAAC (sugars k3 d10 k3, PS), the target mRNA inhibition (SK-MEL-28, 4 µM) came to 27%.

Take CCCATTTAATCTGTCT (sugars k3 d10 k3, PS): the target mRNA inhibition (SK-MEL-28, 4 µM) is 33%.
